The subject of the assay is platelet aggregation induced by PAF. The assay can be described thus: PAF-induced platelet aggregation inhibition (method of Born, aggregometer, platelet rich plasma). It counts as cell-based. The conditions noted are these: in vitro, rabbit PRP 50-55×10^4 /μl, 37° C., PAF C16 final 20 nM added 2 minutes after compound, read-out: IC50 (concentration of the test compounds which inhibit 50% platelet aggregation). As for the experimental part:
Mature male rabbits (NIBS-JW, RABITON Institute Inc., weighing 2.2-2.5 kg) were used. […] (The total volume of blood sample in each tube was adjusted to 8 ml.)
The blood sample in each tube was gently shaken and then centrifuged for 10 minutes at 200 g at 22° C. to give platelet rich plasma (PRP). The remaining blood was further centrifuged at 3,000 rpm (about 1,900 g) for 10 minutes at 22° C. to give platelet-poor plasma (PPP).
PRP was diluted with PPP to prepare a blood sample whose platelet number was 50-55×10^4 /μl. The sample was then subjected to a platelet aggregation test.
A volume of 230 μl of PRP, whose platelet number was adjusted to 50-55×10^4 /μl, was placed in a measuring cuvette and set in the aggregometer. PRP was warmed at 37° C. for 1 minute with stirring at 1,200 rpm, and then a solution of the test compound [dimethylsulfoxide solution (1μl) of the compound+saline (9μl)] was added thereto. Exactly 2 minutes later, 10 μl of platelet activating factor (PAF, C16) (final concentration: 20 nM) was added as a platelet aggregating agent, and the change in light transmission caused by platelet aggregation was recorded.
The light transmissions of PRP and PPP were taken as 0% and 100% aggregation, respectively, and the maximum light transmission after addition of an aggregating agent was made the maximum aggregation. The inhibition rate of the platelet aggregation was expressed as the percentage of the maximum aggregation by a test compound to that by a control (Vehicle added group).

Setting [1] is: Oryctolagus cuniculus, Platelet, 2 min.

Read-outs that look alike come from different tables or passages of the source.

Consider `CCCCCCCCCCCCCCCCSCC(CNS(=O)(=O)CCC[N+](C)(C)C)NC(C)=O` (stereo not shown) [I g2, 2-acetamido-1-hexadecylthio-3-(3-trimethylammoniopropylsulfonylamino)propane iodide], for which the IC50 under setting [1] is 14300 nM.

Consider `CCCCCCCCCCCCCCCCSCC(CNS(=O)(=O)CCC[N+](C)(C)C)COC` (stereo not shown) [I k4, 1-hexadecylthio-2-methoxymethyl-3-(3-trimethylammoniopropylsulfonylamino)propane iodide], for which, under setting [1], the IC50 stood at 80300 nM.

As for `CCCCCCCCCCCCCCCCCCNC(=O)OCC(CN(C(C)=O)S(=O)(=O)CCC[n+]1cccc2ccccc21)NC(C)=O` (stereo not shown) [I g6, 3-(N-acetyl-3-quinoliniopropylsulfonylamino)-2-acetamido-1-octadecylcarbamoyloxypropane iodide], the IC50 under setting [1] was determined as 1320 nM.

Take `CCCCCCCCCCCCCCCCCCNC(=O)OCC(CNS(=O)(=O)CCC[n+]1cccc2ccccc21)NC(=O)OC` (stereo not shown) [I e5, 1-octadecylcarbamoyloxy-2-methoxycarbonylamino-3-(3-quinoliniopropylsulfonylamino)propane iodide]: the IC50 under setting [1] is 533 nM.

Take `CCCCCCCCCCCCCCCCSCC(CNS(=O)(=O)CCC[n+]1cccc2ccccc21)NC(=O)NC` (stereo not shown) [I f4]: under setting [1], the IC50 was 873 nM.

Consider `CCCCCCCCCCCCCCCCCCNC(=O)OCC(CNS(=O)(=O)CCC[n+]1ccccc1)OC` (stereo not shown) [I a3], for which the IC50 under setting [1] worked out at 5200 nM.

`CCCCCCCCCCCCCCCCCCNC(=O)OCC(CNS(=O)(=O)CC[n+]1ccsc1)OC` (stereo not shown) [I a12, 2-methoxy-1-octadecylcarbamoyloxy-3-(2-thiazolioethylsulfonylamino)propaneiodide]: the IC50 under setting [1] amounted to 5950 nM.

For the molecule `CCCCCCCCCCCCCCCCSCC(CNS(=O)(=O)CCC[n+]1cccc2ccccc21)OC(=O)NC` (stereo not shown) [I c1, 1-hexadecylthio-2-methylcarbamoyloxy-3-(3-quinoliniopropylsulfonylamino)propane iodide], the IC50 under setting [1] was determined as 920 nM.

Regarding “2-methoxy-1-octadecylcarbamoylthio-3-(4-quinoliniopropylsulfonyamino)propane chloride [I a27]”, the IC50 amounted to 740 nM.

On to `CCCCCCCCCCCCCCCCCCNC(=O)OCC(CNS(=O)(=O)CCCC[n+]1ccsc1)OC` (stereo not shown) [I a13, 2-methoxy-1-octadecylcarbamoyloxy-3-(4-thiazoliobutylsulfonylamino)propaneiodide], for which the IC50 under setting [1] turned out to be 1770 nM.

On to `CCCCCCCCCCCCCCCCCCNC(=O)OCC(CNS(=O)(=O)CCCC[n+]1ccc2ccccc2c1)OC` (stereo not shown) [I a16], for which the IC50 under setting [1] came out at 13500 nM.

`CCCCCCCCCCCCCCCCCCNC(=O)OCC(CNS(=O)(=O)CCC[n+]1cccc2ccccc21)NC(=O)OC(C)(C)C` (stereo not shown) [I e6, 2-tert-butoxycarbonylamino-1-octadecylcarbamoyloxy-3-(3-quinoliniopropylsulfonylamino)propane iodide]: the IC50 under setting [1] was found to be 3090 nM.

For `CCCCCCCCCCCCCCCCSCC(CNS(=O)(=O)CCC[N+](C)(C)C)OC` (stereo not shown) [I a8, 1-hexadecylthio-2-methoxy-3-(3-trimethylammoniopropylsulfonylamino)propaneiodide], the IC50 under setting [1] came to 82100 nM.

Consider `CCCCCCCCCCCCCCCCCCNC(=O)OCC(CNS(=O)(=O)CCC[n+]1cccc2ccccc21)COC` (stereo not shown) [I k5, 2-methoxymethyl-1-octadecylcarbamoyloxy-3-(3-quinoliniopropylsulfonylamino)propane iodide], for which, under setting [1], the IC50 came to 400 nM.

Turning to `CCCCCCCCCCCCCCCCOCC(CNS(=O)(=O)CCC[n+]1cccc2ccccc21)COC` (stereo not shown) [I k3, 1-hexadecyloxy-2-methoxymethyl-3-(3-quinoliniopropylsulfonylamino)propane iodide], the IC50 under setting [1] was determined as 600 nM.

For the molecule `CCCCCCCCCCCCCCCCSCC(CNS(=O)(=O)CCC[n+]1cccc2ccccc21)NC(=O)OC` (stereo not shown) [I e7, 1-hexadecylthio-2-methoxycarbonylamino-3-(3-quinoliniopropylsulfonylamino)propane iodide], the IC50 under setting [1] stood at 850 nM.

The values above are taken from US5138067A, “Lipid derivatives” (Shionogi & Co. Ltd., priority 1991, dated 1992).
